Laboratory results from article PMC7570662, “In Vivo Pharmacokinetic Analysis Utilizing Non-Targeted and Targeted Mass Spectrometry and In Vitro Assay against Transient Receptor Potential Channels of Maobushisaishinto and Its Constituent Asiasari Radix” (Molecules, 2020).

Legend:
human TRPA1 = target: T1, human TRPA1 (Homo sapiens, UniProt O75762); assay: Ca2+ influx assay in TRPA1-expressing T-REx-293 cells; assay type: cell-based; settings: for activation at 10 µM: T-REx-293, read-out: % of Activation Compared to Positive Control against Each Subfamily of TRP Channel TRPA1; for EC50: dose-response test, Ca2+ influx, read-out: EC50 Value against TRPA1
T1 construct: Each full-length human TRPA1, TRPV1, TRPV4, and TRPM8 coding regions were introduced into a pcDNA4/TO vector; expressed in transfected cells; host or cells: T-REx-293 cells (tetracycline-induced, pcDNA4/TO vector)
T1 sequence (O75762 whole entry): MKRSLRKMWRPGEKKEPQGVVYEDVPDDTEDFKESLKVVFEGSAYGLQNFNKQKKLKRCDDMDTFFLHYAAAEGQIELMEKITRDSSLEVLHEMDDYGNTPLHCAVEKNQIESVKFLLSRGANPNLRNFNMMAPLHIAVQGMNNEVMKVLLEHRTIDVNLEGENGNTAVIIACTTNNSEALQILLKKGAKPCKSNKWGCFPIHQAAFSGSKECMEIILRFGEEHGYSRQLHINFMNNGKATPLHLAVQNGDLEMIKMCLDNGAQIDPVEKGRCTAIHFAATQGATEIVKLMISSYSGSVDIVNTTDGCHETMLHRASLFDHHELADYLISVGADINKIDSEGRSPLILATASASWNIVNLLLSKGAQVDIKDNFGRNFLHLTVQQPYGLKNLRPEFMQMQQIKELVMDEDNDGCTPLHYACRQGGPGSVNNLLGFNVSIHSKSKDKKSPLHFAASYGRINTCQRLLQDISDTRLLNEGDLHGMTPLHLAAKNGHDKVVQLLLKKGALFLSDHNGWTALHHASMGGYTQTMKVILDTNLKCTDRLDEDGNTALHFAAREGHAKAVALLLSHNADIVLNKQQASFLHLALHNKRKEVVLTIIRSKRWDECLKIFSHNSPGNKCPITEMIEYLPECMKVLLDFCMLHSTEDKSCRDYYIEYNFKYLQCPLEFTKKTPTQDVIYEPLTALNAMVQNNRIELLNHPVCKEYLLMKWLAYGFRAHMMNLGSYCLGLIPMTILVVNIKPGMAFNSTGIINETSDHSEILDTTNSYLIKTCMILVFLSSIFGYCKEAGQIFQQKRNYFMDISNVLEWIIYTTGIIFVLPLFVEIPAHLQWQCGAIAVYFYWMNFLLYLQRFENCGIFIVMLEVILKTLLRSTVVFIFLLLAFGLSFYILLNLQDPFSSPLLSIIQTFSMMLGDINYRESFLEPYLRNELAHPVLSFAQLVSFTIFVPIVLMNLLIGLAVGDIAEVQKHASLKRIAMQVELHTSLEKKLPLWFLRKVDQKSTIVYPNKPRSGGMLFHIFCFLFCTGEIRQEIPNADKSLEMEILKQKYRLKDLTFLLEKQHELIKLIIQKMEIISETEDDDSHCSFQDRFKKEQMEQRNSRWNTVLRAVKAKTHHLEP
Protocol: Each full-length human TRPA1, TRPV1, TRPV4, and TRPM8 coding regions were introduced into a pcDNA4/TO vector (Thermo Fisher Scientific, Waltham, MA, USA) and transfected into T-REx-293 cells (Thermo Fisher Scientific) to obtain stable cell lines expressing human TRPA1, TRPV1, TRPV4, and TRPM8. Cells were cultured in DMEM with 10% FBS, 4 mmol/L L-glutamine, and penicillin/streptomycin.
Cells were suspended in medium with 1 µg/mL tetracycline and seeded in poly-D-lysine coated 96-well plate at 2.5 × 10^4 cells/well. After overnight culture, the cells were used for Ca^2+ influx assay.
The Ca^2+ influx assay was performed using a FLIPR Calcium 5 Assay Kit (Molecular Devices, Sunnyvale, CA, USA) according to previously reported methods with minor modifications. In brief, cells were incubated with 80 µL Ca^2+-chelating dye dissolved in assay buffer at pH 7.4 (Hanks’ Balanced Salt Solution containing 20 mmol/L of N-2-hydroxyethylpiperazine-N’-2-ethanesulfonic acid) at room temperature for 30 min. The plates were assayed using a FlexStation 3 Microplate Reader (Molecular Devices). The fluorescence intensity was traced entirely for 80 s. The baseline of fluorescence was measured for 20 s before adding 20 µL of test compound (final concentration, 10 µmol/L). The response was expressed as percentage activation using the relative fluorescence units (RFU) (% activation = 100 × ((RFUmax − RFUbaseline)/RFUbaseline) − 100). Furthermore, the activities of each test compound against several subfamilies of TRP channels were represented as the relative enhancement of Ca^2+ influx of each positive control, indicated as follows: 20 µmol/L of allyl isothiocyanate (an agonist of TRPA1), 2 µmol/L of capsaicin (an agonist of TRPV1), 4 µmol/L of GSK1016790A (an agonist of TRPV4), and 20 µmol/L of icilin (an agonist of TRPM8). The dose–response curve was fitted to the sigmoidal dose-response equation (top, the max response of each compound), and EC50 values were calculated using GraphPad Prism 7 software (GraphPad, San Diego, CA, USA).

[1] = system: LPS-induced NO production in BV-2 microglial cells; set-up: method as in PMID 18293448; settings: cited from earlier work
[2] = 10 µmol/L test compound, relative to 20 µmol/L allyl isothiocyanate

| SMILES | activation at 10 µM (human TRPA1; [2]) | EC50 (human TRPA1) | Effect on LPS-induced NO production in BV-2 microglial cells [1] | % of Activation Compared to Positive Control against Each Subfamily of TRP Channel TRPA1 (human TRPA1; [2]) |
| --- | --- | --- | --- | --- |
| C/C=C/C=C\CC/C=C/C=C/C(=O)NCC(C)C [Amide A, (2E,4E,8Z,10E)-N-isobutyl-2,4,8,10-dodecatetraenamide] | 96% | 470 nM | inhibitory effect |  |
| c1cc2c(cc1[C@H]1OC[C@H]3[C@@H]1CO[C@@H]3c1ccc3c(c1)OCO3)OCO2 [Sesamin] | 106% | 2300 nM | inhibitory effect |  |
| c1cc2c(cc1[C@H]1OC[C@H]3[C@@H]1CO[C@H]3c1ccc3c(c1)OCO3)OCO2 [Asarinin, (−)-Asarinin] | 106% | 3100 nM |  |  |
| CCC(=O)c1cc2c(cc1OC)OCO2 [Methyl kakuol] |  | 270 nM |  | 49% |
